From patent publication US6028222A (priority 1996, dated 2000)
Where “and” joins values, the source holds several entries; their conditions need not be identical. Equal entries are not always repeated. Where two headings read alike, the source gives them in different places.

Experiments:
[1] = Stabilization of concentrated paracetamol solution by free radical scavengers; type: physicochemical; conditions: for Appearance upon exposure to light, color intensity: 48 hours actinic light; for Appearance at 70° C., color intensity: 48 hours, dark
Description: The solutions thus prepared are divided in 10 ml capacity vials, stoppered with a Bromobutyl stopper and capped with an aluminium cap. After autoclaving at 121° C. for 20 minutes, the vials were stored for 48 hours, either in the presence of actinic light at 5500° K. at room temperature or at 70° C. in the dark. The preparation was examined for any change in color.

[2] = Stabilization of dilute paracetamol solution by free radical scavengers (formula A); type: physicochemical; conditions: 48 hours
Description: (§1) The solutions thus prepared were divided in 10 ml, 100 ml or 80 ml capacity vials, stoppered with a Bromobutyl stopper and capped with an aluminium cap. The preparation was examined for any pink color development.
After autoclaving at 121° C. for 20 minutes, the vials were stored for 48 hours, either in the presence of actinic light at 5500° K. at room temperature or at 70° C. in the dark (formula A).

[3] = Stabilization of dilute paracetamol + codein phosphate solution by free radical scavengers; type: physicochemical; conditions: 48 hours
Description: The solutions thus prepared were divided in 10 ml capacity vials, stoppered with a Bromobutyl stopper and capped with an aluminium cap. […] The preparation was examined for any change in color.

[4] = type: physicochemical; conditions: 48 hours
[5] = Stabilization of dilute paracetamol solution by free radical scavengers (formulation B and C); type: physicochemical
Description: as §1

[6] = toxic metabolite of paracetamol; cited from earlier work
[7] = HPLC assay of paracetamol and codein before and after autoclaving; conditions: for assay, after sterilization: 121° C. 20 minutes
[8] = Paracetamol instability in solution and breakdown products; type: physicochemical
[9] = pH stability of concentrated paracetamol solution; type: physicochemical
Description: Vials that had been filled under nitrogen atmosphere by dispensing 10 ml of such solutions, tightly stoppered and capped, were sterilized by autoclaving at 121° C. for 20 minutes, and then in every case exposed, either to a temperature of 105° C. in the dark for 72 hours, or to a radiation of an actinic light at 5000° K. and 25° C. during 264 hours.

[10] = Predicted time to 5% decrease in paracetamol concentration (Arrhenius law); type: physicochemical; conditions: 25° C., optimal pH, aqueous solution; predicted by Arrhenius law
[11] = cited from earlier work
[12] = aqueous solution; cited from earlier work
[13] = Solubility of paracetamol in dilute solutions (absorbance at 240 nm of filtrate); type: physicochemical
[14] = tested on: extensor digitorum longus muscle; assay: Muscular tolerance (creatine kinase release from isolated muscle); parameters: species or system Sprague-Dawley rats; conditions: for creatine kinase activity: 15 μl injected
Description: The pH of this solution was not adjusted. Apparent pH is equal to 7,6.
Sprague-Dawley rats, weighing between 260 g and 450 g were anesthesized with an i.p. injection of ethyl carbamate (2 ml/kg of a 50% aqueous solution). The extensor digitorum longus muscle was dissected from the right or left hind leg, and placed in buffer medium having the following composition:
The muscle is transiently fixed to a board and maintained in position by tendons. The test product was injected in an amount of 15 μl by means of a 25 μl-capacity Hamilton seringe no 702. The muscle is then placed over a grit and immersed in the buffer solution kept at 37° C. with carbogen bubbling throughout the incubation period. At 30 minutes intervals, the muscles were introduced in a tube containing fresh buffer at 37° C. The procedure was repeated 4 times.
Creatine kinase was measured using a Hitachi 704 model analyzer in conjunction with a reagent kit sold under tradename high performance Enzyline CK NAC 10 (Biomerieux).

[15] = 0.2 mg/ml, 124° C. 7 minutes, 48 hours room temperature dark
[16] = C.R.L. 0.2 mg/ml, 124° C. 7 minutes, 48 hours room temperature dark
[17] = 50 mg/ml, 124° C. 7 minutes, 48 hours room temperature dark
[18] = containing 0.5 mg/ml of cystein hydrochloride
[19] = no free radical scavenger added

## O[C@H](CS)[C@H](O)CS (racemic) [Dithiothreitol]
[1]; 1 mg/ml
  Appearance upon exposure to light, color intensity: colorless
  Appearance at 70° C., color intensity: colorless
[2]; 1 mg/ml
  color at 70° C.: colorless
  color upon exposure to light: colorless
[3]; 0.5 mg/ml
  color at 70° C.: colorless
  color upon exposure to light: colorless
[4]; 1 mg/ml
  color at 70° C.: violet pink
  color upon exposure to light: violet pink

## Cl.N[C@@H](CS)C(=O)O.O [Cystein hydrochloride monohydrate]
[5]; [15]
  Solution appearance, color: colorless
[5]; 0.5 mg/ml, 124° C. 7 minutes, 48 hours room temperature dark
  Solution appearance, color: colorless
[5]; [16]
  Dosage of paracetamol (in % of theoretical volume): 99.2%
[5]; C.R.L. 0.5 mg/ml, 124° C. 7 minutes, 48 hours room temperature dark
  Dosage of paracetamol (in % of theoretical volume): 99.6%
[5]; dilute paracetamol solution, 2880 min, hydrochloride monohydrate
  Dosage of C.R.L. (in % of theoretical volume): 80% and 95%

## Cl.N[C@@H](CS)C(=O)O [Cystein hydrochloride]
[1]; 1 mg/ml
  Appearance upon exposure to light, color intensity: cloudy
  Appearance at 70° C., color intensity: cloudy
[2]; 0.05 mg/ml
  color at 70° C.: colorless
  color upon exposure to light: colorless
[2]; 0.1 mg/ml
  color at 70° C.: colorless
  color upon exposure to light: colorless
[2]; 0.25 mg/ml
  color at 70° C.: colorless
  color upon exposure to light: colorless
[2]; 0.5 mg/ml
  color at 70° C.: colorless
  color upon exposure to light: colorless
[2]; 0.75 mg/ml
  color at 70° C.: colorless
  color upon exposure to light: colorless
[2]; 1 mg/ml
  color at 70° C.: colorless
  color upon exposure to light: colorless
[2]; 2 mg/ml
  color at 70° C.: colorless
  color upon exposure to light: colorless
[2]; 5 mg/ml
  color at 70° C.: colorless
  color upon exposure to light: colorless
[3]; 0.05 mg/ml
  color at 70° C.: pink
[3]; 1.0 mg/ml
  color at 70° C.: colorless
  color upon exposure to light: colorless
[3]; 2.0 mg/ml
  color at 70° C.: colorless
  color upon exposure to light: colorless
[3]; 5.0 mg/ml
  color at 70° C.: colorless
  color upon exposure to light: colorless

## OC[C@@H](O)[C@@H](O)[C@H](O)[C@H](O)CO [Mannitol]
[1]; 50 mg/ml
  Appearance upon exposure to light, color intensity: colorless
  Appearance at 70° C., color intensity: colorless
[5]; 20 mg/ml, 124° C. 7 minutes, 48 hours room temperature dark
  Solution appearance, color: colorless
[5]; 40 mg/ml, 124° C. 7 minutes, 48 hours room temperature dark
  Solution appearance, color: colorless
[5]; [17]
  Solution appearance, color: colorless

## CC(=O)N=C1C=CC(=O)C=C1 [N-acetyl-p-benzoquinone-imine]
[6]
  toxic effect: cytotoxic and hemolytic effect

## CC(=O)N[C@@H](CS)C(=O)O [N-acetylcystein]
[5]; [15]
  Dosage of C.R.L. (in % of theoretical volume): 88%
  Solution appearance, color: colorless
[5]; [16]
  Dosage of paracetamol (in % of theoretical volume): 99.2%
[3]; 2.0 mg/ml
  color at 70° C.: grey
  color upon exposure to light: grey

## N[C@@H](CCC(=O)N[C@@H](CS)C(=O)NCC(=O)O)C(=O)O [Reduced glutathion]
[1]; 1 mg/ml
  Appearance upon exposure to light, color intensity: colorless
  Appearance at 70° C., color intensity: colorless
[1]; 8 mg/ml
  Appearance upon exposure to light, color intensity: colorless
  Appearance at 70° C., color intensity: colorless
[2]; 1 mg/ml
  color at 70° C.: colorless
  color upon exposure to light: colorless
[3]; 2.0 mg/ml
  color at 70° C.: colorless
  color upon exposure to light: colorless

## O=C1O[C@H]([C@@H](O)CO)C([O-])=C1O.[Na+] [Sodium ascorbate]
[1]; 1 mg/ml
  Appearance upon exposure to light, color intensity: yellow (+)
  Appearance at 70° C., color intensity: yellow (+)
[2]; 0.2 mg/ml
  color at 70° C.: pink
  color upon exposure to light: pink
[2]; 0.4 mg/ml
  color at 70° C.: yellow
  color upon exposure to light: colorless
[2]; 0.6 mg/ml
  color at 70° C.: yellow
  color upon exposure to light: pink
[2]; 1 mg/ml
  color at 70° C.: yellow
  color upon exposure to light: colorless
[4]; 1 mg/ml
  color at 70° C.: yellow
  color upon exposure to light: yellow

## O=S([O-])OS(=O)[O-].[Na+].[Na+] [Sodium disulfite]
[1]; 0.295 mg/ml
  Appearance upon exposure to light, color intensity: colorless
  Appearance at 70° C., color intensity: colorless
[3]; 0.295 mg/ml
  color at 70° C.: colorless
  color upon exposure to light: colorless
[4]; 0.295 mg/ml
  color at 70° C.: yellow
  color upon exposure to light: yellow

## NC(N)=S [Thiourea]
[2]; 0.5 mg/ml
  color at 70° C.: colorless
  color upon exposure to light: colorless

## COc1ccc2c3c1O[C@H]1[C@@H](O)C=C[C@H]4[C@@H](C2)N(C)CC[C@@]341 [codein]
[7]; [18]
  assay, non sterilized solution: 0.00042 g/mL
  assay, after sterilization: 0.00042 g/mL
[7]; [19]
  assay, non sterilized solution: 0.00043 g/mL
  assay, after sterilization: 0.00042 g/mL

## Nc1ccc(O)cc1 [p-aminophenol]
[8]; aqueous or partially aqueous solutions
  p-aminophenol during storage: not detected

## CC(=O)Nc1ccc(O)cc1 [paracetamol, N-acetyl-p-aminophenol]
[7]; [18]
  assay, non sterilized solution: 0.0082 g/mL
  assay, after sterilization: 0.0081 g/mL
[7]; [19]
  assay, non sterilized solution: 0.0078 g/mL
  assay, after sterilization: 0.0077 g/mL
[9]; pH 7,0 (actual pH 5,8), actinic light, 264 hours
  Color development upon storage in the presence of light: extremely weak
[9]; storage in the presence of light
  effect of pH on paracetamol content and breakdown products: Neither the paracetamol content, nor the breakdown products are affected by pH
[10]
  time needed to observe a 5% decrease in paracetamol concentration: 19 months
[11]; 0.1% aqueous solution, dark, 120 days
  p-aminophen content from hydrolysis, % of initial paracetamol concentration: ~19,8%
[11]; 1000 ppm of ascorbic acid + EDTA (0.0075%)
  ammonia yield with EDTA added: ≤ 14%
[11]; 1000 ppm of ascorbic acid
  ammonia yield upon exposure to bright light: 98%
[11]; EDTA 0.0075%, 0.1% aqueous solution
  decomposition rate with EDTA: 7%
[11]; in presence or not of 1000 ppm of ascorbic acid
  ammonia concentration on distilling an alkaline solution: 14%
[8]; 50° C., in water or in solution no 20
  time to color development: 2 weeks
[8]; in water or in solution no 20
  color upon exposure to light or storage at high temperature: shows rapidly a pink color
[12]
  pH of minimal breakdown: ~6
[13]
  effect of PEG on paracetamol solubility: increased by the presence of PEG

## OCC(O)CS (stereo not drawn) [α-monothioglycerol]
[1]; 1 mg/ml
  Appearance upon exposure to light, color intensity: colorless
  Appearance at 70° C., color intensity: colorless
[3]; 0.5 mg/ml
  color at 70° C.: grey
  color upon exposure to light: grey

## Glucose
[5]; [17]
  Solution appearance, color: colorless

## Triton-X
[14]; 30 min
  creatine kinase activity: 1802 ± 2114 IU/l
[14]; 60 min
  creatine kinase activity: 1716 ± 978 IU/l
[14]; 90 min
  creatine kinase activity: 155 ± 89 IU/l
[14]; 120 min
  creatine kinase activity: 289 ± 251 IU/l
[14]; Total of 30-120 min
  creatine kinase activity, Total: 14962 IU/l
